In US12637423B2, “Aziridinyl functional compound” (priority 2020, dated 2026):

Assays:
[1] = test system: biomarkers Bscl2-GFP and Rtkn-GFP in mES reporter cell lines; assay: ToxTracker assay, overall genotoxicity conclusion; assay type: cell-based, mouse; conditions: Bscl2-GFP and Rtkn-GFP at 10, 25 and 50% cytotoxicity, absence and presence of rat S9
Experimental: (§1) This methodology uses a two step-approach.
(§2) Metabolic was evaluated by addition of S9 liver extract. […] Only GFP expression in intact single cells is determined.

[2] = test system: Bscl2-GFP mouse embryonic stem (mES) reporter cell line; assay: ToxTracker assay, Bscl2-GFP DNA damage reporter; assay type: cell-based
Experimental: as §1, §2

[3] = test system: Rtkn-GFP mouse embryonic stem (mES) reporter cell line; assay: ToxTracker assay, Rtkn-GFP DNA damage reporter; assay type: cell-based
Experimental: as §1, §2

[4] = with S9 rat liver extract, at 10% cytotoxicity, 3 h exposure, 24 h recovery
[5] = with S9 rat liver extract, at 25% cytotoxicity, 3 h exposure, 24 h recovery
[6] = with S9 rat liver extract, at 50% cytotoxicity, 3 h exposure, 24 h recovery
[7] = without S9 rat liver extract, at 10% cytotoxicity, 24 h exposure
[8] = without S9 rat liver extract, at 25% cytotoxicity, 24 h exposure
[9] = without S9 rat liver extract, at 50% cytotoxicity, 24 h exposure

C=CC(=O)OCCOC(=O)NCCCCCCn1c(=O)n(CCCCCCNC(=O)OCCOC(=O)C=C)c(=O)n(CCCCCCNC(=O)OC(C)CN2CC2C)c1=O (stereo not shown) [Compound 1]
1.3 fold: Bscl 2 GFP reporter induction level [2, 9]
non-genotoxic: Genotoxicity conclusion (ToxTracker) [1]
1.0 fold: Bscl 2 GFP reporter induction level [2, 7] | Rtkn GFP reporter induction level [3, 4] | Rtkn GFP reporter induction level [3, 5] | Rtkn GFP reporter induction level [3, 6] | Rtkn GFP reporter induction level [3, 7] | Rtkn GFP reporter induction level [3, 8] | Rtkn GFP reporter induction level [3, 9]
1.2 fold: Bscl 2 GFP reporter induction level [2, 4] | Bscl 2 GFP reporter induction level [2, 5] | Bscl 2 GFP reporter induction level [2, 6] | Bscl 2 GFP reporter induction level [2, 8]
